PMC9848300, “Discovery of novel enasidenib analogues targeting inhibition of mutant isocitrate dehydrogenase 2 as antileukaemic agents” (Journal of Enzyme Inhibition and Medicinal Chemistry, 2023)
Where a chain is given by its changes, count along the chain named.

Assays:
A498 = experiment: NCI 60 antitumor screening (single dose / five doses); type: cell-based; details: Homo sapiens; for GI50: A498, five doses (0.01–100 μM), read-out: GI50; for inhibition at 10 µM: A498 (renal cancer), single dose 10 μM, read-out: Growth inhibition percentage (GI %)
MDA-MB-468 = experiment: as above; type: cell-based; details: Homo sapiens; for inhibition at 10 µM: MDA-MB-468 (breast cancer), single dose 10 μM, read-out: Growth inhibition percentage (GI %); for GI50: MDA-MB-468, five doses (0.01–100 μM), read-out: GI50
SK-MEL-2 = experiment: as above; type: cell-based; details: Homo sapiens; for inhibition at 10 µM: SK-MEL-2 (melanoma), single dose 10 μM, read-out: Growth inhibition percentage (GI %); for GI50: SK-MEL-2, five doses (0.01–100 μM)
EKVX = experiment: as above; type: cell-based; details: Homo sapiens; for inhibition at 10 µM: EKVX (non-small cell lung cancer), single dose 10 μM, read-out: Growth inhibition percentage (GI %); for GI50: EKVX, five doses (0.01–100 μM), read-out: GI50
SK-MEL-5 = experiment: as above; type: cell-based; details: Homo sapiens; for inhibition at 10 µM: SK-MEL-5 (melanoma), single dose 10 μM, read-out: Growth inhibition percentage (GI %); for GI50: SK-MEL-5, five doses (0.01–100 μM), read-out: GI50
IDH2^R140Q = molecular target: T1, IDH2^R140Q (Homo sapiens, UniProt P48735, R140Q); experiment: biochemical
T1 sequence (P48735 40-452 R140Q): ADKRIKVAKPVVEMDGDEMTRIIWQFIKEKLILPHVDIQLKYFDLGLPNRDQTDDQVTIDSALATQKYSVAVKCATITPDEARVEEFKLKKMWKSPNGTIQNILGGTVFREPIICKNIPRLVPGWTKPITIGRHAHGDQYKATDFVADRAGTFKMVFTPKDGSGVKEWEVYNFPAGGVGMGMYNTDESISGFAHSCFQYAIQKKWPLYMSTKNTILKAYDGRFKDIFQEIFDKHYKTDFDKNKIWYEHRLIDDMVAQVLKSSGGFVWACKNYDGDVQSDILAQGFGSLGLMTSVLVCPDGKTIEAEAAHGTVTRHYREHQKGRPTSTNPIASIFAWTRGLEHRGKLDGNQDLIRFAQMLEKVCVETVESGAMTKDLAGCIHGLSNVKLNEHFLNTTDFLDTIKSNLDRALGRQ

COLO 205 = experiment: NCI 60 antitumor screening (single dose / five doses); type: cell-based; details: Homo sapiens; for inhibition at 10 µM: COLO 205 (colon cancer), single dose 10 μM, read-out: Growth inhibition percentage (GI %); for GI50: COLO 205, five doses (0.01–100 μM), read-out: GI50
wild type IDH2 = molecular target: T2, wild type IDH2 (Homo sapiens, UniProt P48735); experiment: IDH2 enzyme inhibition assay (wild type IDH Assay Kit)
T2 sequence (P48735 40-452): T1 sequence (P48735 40-452 R140Q) with Q101R

SMILES	GI50 (A498) [µM]	inhibition at 10 µM (MDA-MB-468) [%]	GI50 (MDA-MB-468) [µM]	inhibition at 10 µM (SK-MEL-2) [%]	GI50 (SK-MEL-2) [µM]	inhibition at 10 µM (EKVX) [%]	GI50 (EKVX) [µM]	inhibition at 10 µM (SK-MEL-5) [%]	GI50 (SK-MEL-5) [µM]	IC50 (IDH2^R140Q) [µM]	inhibition at 10 µM (COLO 205) [%]	GI50 (COLO 205) [µM]	inhibition at 10 µM (A498) [%]	IC50 (wild type IDH2) [µM]
Oc1ccccc1/C=N/Nc1nc(N/N=C/c2ccccc2O)nc(N2CCOCC2)n1 [compound 6a, 2-[(1e)-(2-{4-[(E)-2-[(2-Hydroxyphenyl)methylidene]hydrazin-1-yl]-6-(morpholin-4-yl)-1,3,5-triazin-2-yl}hydrazin-1-ylidene)methyl]phenol]	1.09	60.8	4.11	28	6.06	77.8	3.28	34.2	5.86	0.373 ± 0.0182	52	5.53		
Clc1cccc(/C=N/Nc2nc(N/N=C/c3cccc(Cl)c3)nc(N3CCOCC3)n2)c1 [compound 6d, 2,4-Bis[(E)-2-[(3-chlorophenyl)methylidene]hydrazin-1-yl]-6-(morpholin-4-yl)-1,3,5-triazine]	1.67	69.2	1.65	102	2.18	27.8	4.23	55.9	1.72	1.87 ± 0.0912	63.1	1.23	95.7	
Fc1cccc(/C=N/Nc2nc(N/N=C/c3cccc(F)c3)nc(N3CCOCC3)n2)c1 [compound 6e, 2,4-Bis[(E)-2-[(3-Fluorophenyl)methylidene]hydrazin-1-yl]-6-(morpholin-4-yl)-1,3,5-triazine]		11.5		2.51		10.9		27.9		0.067 ± 0.00327	37.4		52	2.3 ± 0.09
Fc1cccc(Cl)c1/C=N/Nc1nc(N/N=C/c2c(F)cccc2Cl)nc(N2CCOCC2)n1 [compound 6l, 2,4-Bis[(E)-2-[(2-Chloro-6-fluorophenyl)methylidene]hydrazin-1-yl]-6-(morpholin-4-yl)-1,3,5-triazine]		24.6		17.1		45.5		44.9		0.158 ± 0.00772	29.6		26.9	3.44 ± 0.13
Oc1ccccc1/C=N/Nc1nc(N/N=C/c2ccccc2O)nc(N2CCCCC2)n1 [compound 7a, 2-[(1e)-(2-{4-[(E)-2-[(2-Hydroxyphenyl)methylidene]hydrazin-1-yl]-6-(piperidin-1-yl)-1,3,5-triazin-2-yl}hydrazin-1-ylidene)methyl] phenol]		36.2		30.8		69.9		25.6		0.13 ± 0.00635	75.5		17	5.42 ± 0.21
Brc1cccc(/C=N/Nc2nc(N/N=C/c3cccc(Br)c3)nc(N3CCCCC3)n2)c1 [compound 7c, 2,4-Bis[(E)-2-[(3-Bromophenyl)methylidene]hydrazin-1-yl]-6-(piperidin-1-yl)-1,3,5-triazine]		9.99		-2.13		22.4		28.6		0.0889 ± 0.00434	-5.18		12.2	3.13 ± 0.12
Clc1cccc(/C=N/Nc2nc(N/N=C/c3cccc(Cl)c3)nc(N3CCCCC3)n2)c1 [compound 7d, 2,4-Bis[(E)-2-[(3-Chlorophenyl)methylidene]hydrazin-1-yl]-6-(piperidin-1-yl)-1,3,5-triazine]		23.7		13.9		21.6		19.4		0.37 ± 0.018	-1.88		7.8	
Fc1cccc(/C=N/Nc2nc(N/N=C/c3cccc(F)c3)nc(N3CCCCC3)n2)c1 [compound 7e, 2,4-Bis[(E)-2-[(3-Fluorophenyl)methylidene]hydrazin-1-yl]-6-(piperidin-1-yl)-1,3,5-triazine]		9.17		0.55		29.3		32.1		0.176 ± 0.0086	-0.08		15.7	5.07 ± 0.2
CN(C)c1ccc(/C=N/Nc2nc(N/N=C/c3ccc(N(C)C)cc3)nc(N3CCCCC3)n2)cc1 [compound 7g, 4-[(1e)-(2-{4-[(E)-2-{[4-(dimethylamino)phenyl]methylidene}chydrazin-1-yl]-6-(piperidin-1-yl)-1,3,5-triazin-2-yl}hydrazin-1-ylidene)methyl]-N,N-dimethylaniline]	1.58	63.7	1.64	-10.8	1.99	2.99	3.13	13.3	1.73	0.505 ± 0.0247	16.5	1.89	-15.1	
Fc1cccc(Cl)c1/C=N/Nc1nc(N/N=C/c2c(F)cccc2Cl)nc(N2CCCCC2)n1 [compound 7l, 2,4-Bis[(E)-2-[(2-Chloro-6-fluorophenyl)methylidene]hydrazin-1-yl]-6-(piperidin-1-yl)-1,3,5-triazine]	2.4	114	1.86	126	1.69	86.2	1.54	41	1.88	0.16 ± 0.00781	117	1.78	47.2	9.5 ± 0.37
